According to patent US11365184B2, “Antiproliferative compounds, and their pharmaceutical compositions and uses” (Celgene Corporation, priority 2016, dated 2022):

System: KG-1 cell line
Assay: KG-1 cell proliferation assay (Cell Titer-Glo)
Format: cell-based
Details: Homo sapiens; KG-1 cells, 72 hours post-treatment, Cell Titer-Glo luminescence; read-out: FCA Prolif Cell TiterGlo KG-1 72 h (IC50)
Method: The following is an example of an assay that can be used to determine the anti-proliferative activity of Compound A and Compound B in KG-1 cell line (American Type Culture Collection [ATCC]: catalogue number ATCC© CCL-246™) at 72 hours post-treatment. The seeding density for KG-1 can be optimized to ensure assay linearity in 384-well plates.
Increasing concentrations of test compounds (0.5 nM to 10 μM) was spotted in a 10-point serial dilution fashion (3-fold dilution) in duplicate via an acoustic dispenser (EDC ATS-100) into an empty 384-well plate. The dimethyl sulfoxide (DMSO) concentration was kept constant for a final assay concentration of 0.1% DMSO. Prior to testing, KG-1 cells were grown in RPMI-1640 (Roswell Park Memorial Institute-1640) medium with 10% FBS (fetal bovine serum: HyClone) and expanded in culture flasks to provide sufficient amounts of starting material. Cells were then diluted to 5000 cells per well, in a 50 μL volume and added directly to the compound-spotted 384-well plates. Cells were allowed to grow for 72 hours in 5% CO2 at 37° C. At the time when exposure of cells to compound began (to), initial viable cell number was assessed via Cell Titer-Glo® Luminescent Cell Viability Assay at a 1 vol: 2 vol ratio according to manufacturer's instructions (Promega Corporation, Madison, Wis.) by quantifying the level of luminescence generated by adenosine-5′-triphosphate (ATP) present in viable cells. After 72 hours, cell viability of the treated cells is assessed via Cell Titer-Glo® and read for luminescence.

| SMILES | IC50 [nM] |
| --- | --- |
| O=C1CCC(N2Cc3cc(CNC(=O)C(F)(F)c4ccc(F)cc4)ccc3C2=O)C(=O)N1COP(=O)(O)O (stereo not drawn) | 100 to 700 |
| CC(C)[C@H](N)C(=O)OCN1C(=O)CCC(N2Cc3cc(CNC(=O)C(F)(F)c4ccc(F)cc4)ccc3C2=O)C1=O (stereo partly drawn) | 10 to 100 |
| O=C1CCC(N2Cc3cc(CNC(=O)C(F)(F)c4ccc(Cl)cc4)ccc3C2=O)C(=O)N1COP(=O)(O)O (stereo not drawn) | 100 to 700 |
